Data set [1] addresses T1, UT-A1 (Rattus norvegicus, UniProt Q62668).
T1 construct: expressed in transfected cells; host or cells: MDCK cells
T1 sequence (Q62668 1-929): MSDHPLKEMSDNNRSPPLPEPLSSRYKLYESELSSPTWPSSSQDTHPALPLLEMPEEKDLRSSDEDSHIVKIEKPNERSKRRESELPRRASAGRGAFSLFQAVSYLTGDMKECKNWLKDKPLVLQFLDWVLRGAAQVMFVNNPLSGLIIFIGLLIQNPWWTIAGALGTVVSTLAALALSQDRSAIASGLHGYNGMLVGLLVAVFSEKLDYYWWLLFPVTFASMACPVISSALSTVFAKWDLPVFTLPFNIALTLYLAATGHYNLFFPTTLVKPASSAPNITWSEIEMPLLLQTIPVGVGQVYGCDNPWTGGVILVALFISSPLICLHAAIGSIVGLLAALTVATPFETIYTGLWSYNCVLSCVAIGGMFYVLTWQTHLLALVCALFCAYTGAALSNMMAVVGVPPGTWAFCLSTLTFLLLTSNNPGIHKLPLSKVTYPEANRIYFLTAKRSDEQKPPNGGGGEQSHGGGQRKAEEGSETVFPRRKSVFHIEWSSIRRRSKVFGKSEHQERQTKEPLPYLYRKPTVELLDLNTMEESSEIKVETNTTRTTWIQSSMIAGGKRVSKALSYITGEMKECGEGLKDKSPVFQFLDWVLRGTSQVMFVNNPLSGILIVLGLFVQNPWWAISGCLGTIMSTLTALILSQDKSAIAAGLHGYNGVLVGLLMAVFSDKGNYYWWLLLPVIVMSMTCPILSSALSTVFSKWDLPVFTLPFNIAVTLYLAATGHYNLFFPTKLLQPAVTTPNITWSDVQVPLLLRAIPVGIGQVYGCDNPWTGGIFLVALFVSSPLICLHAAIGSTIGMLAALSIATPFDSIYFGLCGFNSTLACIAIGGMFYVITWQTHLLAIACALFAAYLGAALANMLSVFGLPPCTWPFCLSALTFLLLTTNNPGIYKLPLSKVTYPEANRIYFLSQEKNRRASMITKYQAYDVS
Briefly: Transepithelial urea transport in UT-A1-expressing MDCK cells on porous filters. In kind it is cell-based. The following applies: 3 μM inhibitor, forskolin 10 μM. The procedure: UT-A1 expressing MDCK cells were grown on 12-mm diameter collagen-coated Transwell inserts (0.4 μm pore size; Costar, Costar, N.Y.) to form tight monolayers (resistance>500 Ωcm^2), as described (see, e.g., Levin et al. (2007) FASEB J. 21, 551-563). Urea flux in the basolateral-to-apical direction was measured in response to a 15 mM urea gradient in which PBS containing forskolin (10 μM), with or without UT-A1 inhibitor and 0.7 mM phloretin, was added to both the apical-facing (0.2 mL) and basal-facing (2 mL) surfaces. After 30 min the basal-facing solution was replaced by PBS containing test compound+15 mM urea. Apical fluid samples (5 μL) were collected at specified times for enzymatic assay of urea (QUANTICHROME Urea Assay Kit; BioAssay Systems, Hayward, Calif.). To measure inhibitor permeability across MDCK cell layers, compounds (20 μM) were added on the basal-facing surface and fluid samples (20 μL) from the apical-facing surface were collected at different time points and analyzed by LC/MS.
Transepithelial urea transport from the basolateral to the apical solution was measured by enzymatic assay of urea in the apical solution following urea addition to the basal-facing solution.

The nature of data set [2]: In vitro metabolic stability in rat hepatic microsomes. In kind it is in vitro ADME. The following applies: at 60 min, 5 μM, NADPH. As for the experimental part:
As described (see, e.g., Snyder et al. (2011) J Med Chem. 54, 5468-5477), compounds (each 5 μM) were incubated for specified times at 37° C. with rat liver microsomes (1 mg protein/mL; Sigma-Aldrich, St. Louis, Mo.) in potassium phosphate buffer (100 mM) containing 1 mM NADPH. The mixture was then chilled on ice, and 0.5 mL of ice-cold EtOAc was added. Samples were centrifuged for 15 min at 3,000 rpm, the supernatant evaporated to dryness, and the residue was dissolved in 100 μl mobile phase (acetonitrile: water [3:1], containing 0.1% formic acid) for LC/MS. Reverse-phase HPLC separations were carried out using a XTERRA MS C18 column (2.1 mm×100 mm, 3.5 m) equipped with a solvent delivery system (Waters model 2695, Milford, Mass.). The solvent system consisted of a linear gradient from 5 to 95% acetonitrile containing 0.1% formic acid, run over 16 min (0.2 mL/min flow rate).
In vitro metabolic stability was measured by LC/MS after incubation with rat hepatic microsomes and NADPH.

Data set [3] is described as follows: Solubility. It is filed as physicochemical. The procedure: Several vehicles and administration routes were tested in order to give predicted therapeutic inhibitor concentrations in blood and urine. […] Because of the alkaline pH of the administered compounds the vehicle control for UTAinh-F11 was 20% dimethylacetamide and 1.2 mg/mL NaHCO3 in saline to give identical pH. […] Urine levels of UTAinh-F11 were >3 μM over 6 h.
Compound toxicity was evaluated by compound incubation for 24 h with MDCK cell cultures followed by Alamar blue assay. […] To assess potential ion channel off-target effects, short-circuit current was measured in MDCK cells in response to cAMP (forskolin) and calcium (ATP) agonists (FIG. 5C, right), which depends on the actions of multiple anion (CFTR, calcium-activated chloride channels) and cation (K^+, Na^+) channels.

SMILES strings stand for the structures. Values after ≈ are worked out from the molar mass of the structure shown. Where two headings read alike, the source gives them in different places.

For `COc1ccc(C)cc1S(=O)(=O)Nc1ccc(Cl)c(N2CCCS2(=O)=O)c1` [UTA1inh-F11, N-[4-Chloro-3-(1,1-dioxido-1,2-thiazolidin-2-yl)phenyl]-2-methoxy-5-methylbenzene-sulfonamide], the “inhibition of transepithelial urea transport” value in data set [1] was roughly 50%. For the same molecule, in data set [2], the metabolism was roughly 50%. The solubility (usually the dissolved amount per volume that the medium holds) in data set [3] (in words, vehicle selection) is “dissolved well in 20% dimethylacetamide, 0.6 mg/mL NaOH in saline”; in data set [3] (read-out: solubility limit), roughly 25 µM (≈ 10.8 µg/mL).

As for `CC(=O)Nc1ccc(-c2csc(-c3c[nH]c4ccccc34)n2)cc1` [UTA1inh-E02, N-(4-(2-(1H-indol-3-yl)thiazol-4-yl)phenyl)acetamide], the “inhibition of transepithelial urea transport” value in data set [1] is recorded as roughly 50%. The molecule also had a metabolism in data set [2] of roughly 50%. Besides, the solubility entry in data set [3] (in words, vehicle selection) is “limited solubility”; in data set [3] (read-out: solubility limit) it was roughly 25 µM (≈ 8.34 µg/mL).
